From ChEMBL document CHEMBL4385613, “Discovery of Conformational Control Inhibitors Switching off the Activated c-KIT and Targeting a Broad Range of Clinically Relevant c-KIT Mutants” (J Med Chem, 2019)
pIC50: −log10 of the molar value. The source made the active and inactive calls. No cut-off for these calls is given here.

Experiments:
[1] = Antiproliferative activity against human Detroit 551 assessed as reduction in cell viability after 72 hrs by MTS assay; assay type: cell-based; settings: Detroit 551 cells
[2] = system: Mast/stem cell growth factor receptor Kit (Homo sapiens), P10721 [D820E]; settings: at 10 nM
Chain of Mast/stem cell growth factor receptor Kit (Homo sapiens), P10721 [D820E] (P10721 whole entry D820E, the tested form may be a part): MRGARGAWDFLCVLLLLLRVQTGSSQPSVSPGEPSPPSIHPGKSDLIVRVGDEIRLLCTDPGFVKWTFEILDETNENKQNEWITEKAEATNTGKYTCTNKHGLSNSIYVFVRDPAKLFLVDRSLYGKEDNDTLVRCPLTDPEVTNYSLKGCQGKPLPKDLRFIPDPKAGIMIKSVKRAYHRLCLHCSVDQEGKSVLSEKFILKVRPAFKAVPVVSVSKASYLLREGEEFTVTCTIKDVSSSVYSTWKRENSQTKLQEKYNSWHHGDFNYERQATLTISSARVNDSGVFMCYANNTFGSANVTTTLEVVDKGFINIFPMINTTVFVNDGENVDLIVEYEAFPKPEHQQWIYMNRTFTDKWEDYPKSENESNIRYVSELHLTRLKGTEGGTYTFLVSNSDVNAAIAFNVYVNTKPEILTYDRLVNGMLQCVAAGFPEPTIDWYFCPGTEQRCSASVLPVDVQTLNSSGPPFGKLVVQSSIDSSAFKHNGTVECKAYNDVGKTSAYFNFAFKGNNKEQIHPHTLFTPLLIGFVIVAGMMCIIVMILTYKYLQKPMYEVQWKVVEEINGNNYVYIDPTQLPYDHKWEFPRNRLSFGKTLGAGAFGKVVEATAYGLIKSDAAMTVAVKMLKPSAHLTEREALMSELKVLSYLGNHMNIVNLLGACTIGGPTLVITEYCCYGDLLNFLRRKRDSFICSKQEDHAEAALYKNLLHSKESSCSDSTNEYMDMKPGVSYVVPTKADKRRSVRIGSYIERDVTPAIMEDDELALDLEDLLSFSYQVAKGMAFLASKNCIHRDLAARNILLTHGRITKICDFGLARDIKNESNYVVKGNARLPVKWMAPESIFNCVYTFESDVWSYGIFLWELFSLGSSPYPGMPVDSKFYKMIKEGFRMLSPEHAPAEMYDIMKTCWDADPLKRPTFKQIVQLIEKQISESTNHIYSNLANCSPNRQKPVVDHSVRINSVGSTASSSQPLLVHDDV
Description: Inhibition of human c-KIT A loop exon 17 D820E single mutant at 10 nM using poly (Glu,Tyr) 4:1 as substrate in presence of 33P-gamma-ATP by hotspot kinase assay relative to control

[3] = target: Mast/stem cell growth factor receptor Kit (Homo sapiens, UniProt P10721); assay: Inhibition of unactivated recombinant human N-terminal 6x-His-tagged c-KIT (547 to 935 residues)/(694 to 753 residues deletion) expressed in baculovirus infected Sf9 insect cells assessed as decrease in poly (Glu,Tyr) 4:1 phosphorylation incubated for 30 mins followed by ATP addition and measured after 120 mins by Kinase Glo based luminescence assay
[4] = target: Mast/stem cell growth factor receptor Kit (Homo sapiens, UniProt P10721, V560G); assay: Inhibition of human c-KIT JM domain exon 11 V560G single mutant using poly (Glu,Tyr) 4:1 as substrate in presence of 33P-gamma-ATP by hotspot kinase assay
Chain of Mast/stem cell growth factor receptor Kit (Homo sapiens, UniProt P10721, V560G) (P10721 26-976 V560G limits assumed): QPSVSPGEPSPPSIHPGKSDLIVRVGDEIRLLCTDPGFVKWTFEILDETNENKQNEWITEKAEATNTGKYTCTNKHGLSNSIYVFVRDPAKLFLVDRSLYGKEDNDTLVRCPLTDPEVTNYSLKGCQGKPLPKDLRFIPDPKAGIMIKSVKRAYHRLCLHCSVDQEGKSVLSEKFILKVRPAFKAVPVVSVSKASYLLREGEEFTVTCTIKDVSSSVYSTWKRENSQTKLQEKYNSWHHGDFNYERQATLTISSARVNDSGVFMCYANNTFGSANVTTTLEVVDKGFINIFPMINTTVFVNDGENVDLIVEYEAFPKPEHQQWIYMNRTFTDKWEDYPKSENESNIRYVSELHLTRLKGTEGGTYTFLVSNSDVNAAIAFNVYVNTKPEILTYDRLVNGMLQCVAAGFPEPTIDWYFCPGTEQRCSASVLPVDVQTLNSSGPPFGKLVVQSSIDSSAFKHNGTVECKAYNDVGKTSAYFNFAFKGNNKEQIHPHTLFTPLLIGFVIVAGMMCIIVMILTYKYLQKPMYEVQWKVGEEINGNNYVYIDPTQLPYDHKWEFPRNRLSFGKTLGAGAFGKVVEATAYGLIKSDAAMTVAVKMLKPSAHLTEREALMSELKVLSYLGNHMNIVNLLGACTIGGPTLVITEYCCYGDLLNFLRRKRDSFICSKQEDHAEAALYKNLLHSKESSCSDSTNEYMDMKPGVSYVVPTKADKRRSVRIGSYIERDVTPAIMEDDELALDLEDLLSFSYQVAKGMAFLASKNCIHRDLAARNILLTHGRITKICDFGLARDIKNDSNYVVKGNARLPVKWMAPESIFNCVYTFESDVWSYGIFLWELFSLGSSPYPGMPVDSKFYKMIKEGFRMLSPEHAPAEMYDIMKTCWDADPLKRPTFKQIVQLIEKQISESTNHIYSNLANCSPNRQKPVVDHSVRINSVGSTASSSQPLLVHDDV

[5] = target: Mast/stem cell growth factor receptor Kit (Homo sapiens, UniProt P10721, A829P); assay: Inhibition of human c-KIT A loop exon 18 A829P single mutant using poly (Glu,Tyr) 4:1 as substrate in presence of 33P-gamma-ATP by hotspot kinase assay
Chain of Mast/stem cell growth factor receptor Kit (Homo sapiens, UniProt P10721, A829P) (P10721 26-976 A829P limits assumed): as the sequence (P10721 26-976 V560G limits assumed) above, with G535V, A804P counted along it

[6] = system: Mast/stem cell growth factor receptor Kit (Homo sapiens), P10721 [Y823D]; settings: at 100 nM
Chain of Mast/stem cell growth factor receptor Kit (Homo sapiens), P10721 [Y823D] (P10721 whole entry Y823D): as the sequence (P10721 whole entry D820E, the tested form may be a part) above, with E820D, Y823D counted along it
Description: Inhibition of human c-KIT A loop exon 17 Y823D single mutant at 100 nM using poly (Glu,Tyr) 4:1 as substrate in presence of 33P-gamma-ATP by hotspot kinase assay relative to control

[7] = system: Mast/stem cell growth factor receptor Kit (Homo sapiens), P10721 [A829P]; assay: Inhibition of human c-KIT A loop exon 18 A829P single mutant at 10 nM using poly (Glu,Tyr) 4:1 as substrate in presence of 33P-gamma-ATP by hotspot kinase assay relative to control
Chain of Mast/stem cell growth factor receptor Kit (Homo sapiens), P10721 [A829P] (P10721 whole entry A829P, the tested form may be a part): as the sequence (P10721 whole entry D820E, the tested form may be a part) above, with E820D, A829P counted along it

[8] = target: Mast/stem cell growth factor receptor Kit (Homo sapiens, UniProt P10721, T670I); assay: Inhibition of human c-KIT ATP binding domain exon 14 T670I single mutant using poly (Glu,Tyr) 4:1 as substrate in presence of 33P-gamma-ATP by hotspot kinase assay
Chain of Mast/stem cell growth factor receptor Kit (Homo sapiens, UniProt P10721, T670I) (P10721 26-976 T670I limits assumed): as the sequence (P10721 26-976 V560G limits assumed) above, with G535V, T645I counted along it

[9] = target: Mast/stem cell growth factor receptor Kit (Homo sapiens, UniProt P10721, K642E); assay: Inhibition of human c-KIT ATP binding domain exon 13 K642E single mutant using poly (Glu,Tyr) 4:1 as substrate in presence of 33P-gamma-ATP by hotspot kinase assay
Chain of Mast/stem cell growth factor receptor Kit (Homo sapiens, UniProt P10721, K642E) (P10721 26-976 K642E limits assumed): as the sequence (P10721 26-976 V560G limits assumed) above, with G535V, K617E counted along it

[10] = Half life in ICR mouse at 10 mg/kg, po administered as single dose measured up to 24 hrs by LC-MS/MS analysis; assay type: ADME, organism-based; settings: in vivo
[11] = Volume of distribution at steady state in ICR mouse at 2 mg/kg, iv administered as single dose measured up to 24 hrs by LC-MS/MS analysis; assay type: ADME, organism-based; settings: in vivo, read-out: Vdss
[12] = system: Mast/stem cell growth factor receptor Kit (Homo sapiens), P10721 [T670I]; assay: Inhibition of human c-KIT ATP binding domain exon 14 T670I single mutant at 10 nM using poly (Glu,Tyr) 4:1 as substrate in presence of 33P-gamma-ATP by hotspot kinase assay relative to control
Chain of Mast/stem cell growth factor receptor Kit (Homo sapiens), P10721 [T670I] (P10721 whole entry T670I, the tested form may be a part): as the sequence (P10721 whole entry D820E, the tested form may be a part) above, with T670I, E820D counted along it

Mus musculus = assay: Decrease in c-KIT phosphorylation in NOD-SCID mouse xenografted with human GIST430 cells harboring c-KIT exon 11 primary in-frame V560-L576 deletion mutant and exon 13 heterozygous secondary missense V654A mutant at 80 mg/kg, po measured after 8 hrs by immunoblotting analysis relative to control; assay type: functional
[13] = target: Mast/stem cell growth factor receptor Kit (Homo sapiens, UniProt P10721, D820Y); assay: Inhibition of human c-KIT A loop exon 17 D820Y single mutant using poly (Glu,Tyr) 4:1 as substrate in presence of 33P-gamma-ATP by hotspot kinase assay
Chain of Mast/stem cell growth factor receptor Kit (Homo sapiens, UniProt P10721, D820Y) (P10721 26-976 D820Y limits assumed): as the sequence (P10721 26-976 V560G limits assumed) above, with G535V, D795Y counted along it

[14] = system: Mast/stem cell growth factor receptor Kit (Homo sapiens), P10721 [V560G,D816V]; assay: Inhibition of human c-KIT A loop exon 11/17 V560G/D816V double mutant at 100 nM using poly (Glu,Tyr) 4:1 as substrate in presence of 33P-gamma-ATP by hotspot kinase assay relative to control
Chain of Mast/stem cell growth factor receptor Kit (Homo sapiens), P10721 [V560G,D816V] (P10721 whole entry V560G/D816V): as the sequence (P10721 whole entry D820E, the tested form may be a part) above, with V560G, D816V, E820D counted along it

[15] = target: Mast/stem cell growth factor receptor Kit (Homo sapiens, UniProt P10721, N822K/V560G); assay: Inhibition of human c-KIT A loop exon 11/17 V560G/N822K double mutant using poly (Glu,Tyr) 4:1 as substrate in presence of 33P-gamma-ATP by hotspot kinase assay
Chain of Mast/stem cell growth factor receptor Kit (Homo sapiens, UniProt P10721, N822K/V560G) (P10721 26-976 V560G/N822K limits assumed): as the sequence (P10721 26-976 V560G limits assumed) above, with N797K counted along it

[16] = system: Mast/stem cell growth factor receptor Kit (Homo sapiens), P10721 [K642E]; assay: Inhibition of human c-KIT ATP binding domain exon 13 K642E single mutant at 100 nM using poly (Glu,Tyr) 4:1 as substrate in presence of 33P-gamma-ATP by hotspot kinase assay relative to control
Chain of Mast/stem cell growth factor receptor Kit (Homo sapiens), P10721 [K642E] (P10721 whole entry K642E, the tested form may be a part): as the sequence (P10721 whole entry D820E, the tested form may be a part) above, with K642E, E820D counted along it

[17] = system: Mast/stem cell growth factor receptor Kit (Homo sapiens), P10721 [V654A]; assay: Inhibition of human c-KIT ATP binding domain exon 13 V654A single mutant at 100 nM using poly (Glu,Tyr) 4:1 as substrate in presence of 33P-gamma-ATP by hotspot kinase assay relative to control
Chain of Mast/stem cell growth factor receptor Kit (Homo sapiens), P10721 [V654A] (P10721 whole entry V654A, the tested form may be a part): as the sequence (P10721 whole entry D820E, the tested form may be a part) above, with V654A, E820D counted along it

[18] = system: Mast/stem cell growth factor receptor Kit (Homo sapiens), P10721 [T670I]; assay: Inhibition of human c-KIT ATP binding domain exon 14 T670I single mutant at 100 nM using poly (Glu,Tyr) 4:1 as substrate in presence of 33P-gamma-ATP by hotspot kinase assay relative to control
A549 = assay: Antiproliferative activity against human A549 assessed as reduction in cell viability after 72 hrs by MTS assay; assay type: functional; settings: A549, 72 h
[19] = system: Mast/stem cell growth factor receptor Kit (Homo sapiens), P10721 [UNDEFINED MUTATION]; assay: Inhibition of c-KIT V560-L576 deletion/V654A double mutant phosphorylation in human GIST430 cells assessed as decrease in phosphorylation of MEK at 10 to 100 nM measured after 24 to 72 hrs by Western blot analysis; assay type: cell-based
Chain of Mast/stem cell growth factor receptor Kit (Homo sapiens), P10721 [UNDEFINED MUTATION] (P10721 whole entry, looked up, stated change not applied): as the sequence (P10721 whole entry D820E, the tested form may be a part) above, with E820D counted along it

[20] = target: Mast/stem cell growth factor receptor Kit (Homo sapiens, UniProt P10721, D816V); assay: Inhibition of human c-KIT A loop exon 17 D816V single mutant using poly (Glu,Tyr) 4:1 as substrate in presence of 33P-gamma-ATP by hotspot kinase assay
Chain of Mast/stem cell growth factor receptor Kit (Homo sapiens, UniProt P10721, D816V) (P10721 26-976 D816V limits assumed): as the sequence (P10721 26-976 V560G limits assumed) above, with G535V, D791V counted along it

[21] = system: Mast/stem cell growth factor receptor Kit (Homo sapiens), P10721 [V560G,D816V]; assay: Inhibition of human c-KIT A loop exon 11/17 V560G/D816V double mutant at 10 nM using poly (Glu,Tyr) 4:1 as substrate in presence of 33P-gamma-ATP by hotspot kinase assay relative to control
[22] = system: Mast/stem cell growth factor receptor Kit (Homo sapiens), P10721 [V559D,V654A]; assay: Inhibition of human c-KIT […] V559D/V654A double mutant at 10 nM using poly (Glu,Tyr) 4:1 as substrate in presence of 33P-gamma-ATP by hotspot kinase assay relative to control
Chain of Mast/stem cell growth factor receptor Kit (Homo sapiens), P10721 [V559D,V654A] (P10721 whole entry V559D/V654A): as the sequence (P10721 whole entry D820E, the tested form may be a part) above, with V559D, V654A, E820D counted along it

[23] = target: Mast/stem cell growth factor receptor Kit (Homo sapiens, UniProt P10721, Y823D); assay: Inhibition of human c-KIT A loop exon 17 Y823D single mutant using poly (Glu,Tyr) 4:1 as substrate in presence of 33P-gamma-ATP by hotspot kinase assay
Chain of Mast/stem cell growth factor receptor Kit (Homo sapiens, UniProt P10721, Y823D) (P10721 26-976 Y823D limits assumed): as the sequence (P10721 26-976 V560G limits assumed) above, with G535V, Y798D counted along it

SMILES: CCc1cc(NC(=O)Nc2ccc(-c3cnc(Nc4cc(N5CCN(CC)CC5)ncn4)s3)cc2)no1
- GI50 at 72 h [1]: > 10 µM
- inhibition [2]: 83%
- pIC50 [3]: 7.16
- pIC50 [4]: 9.01
- pIC50 [5]: 9.05
- inhibition [6]: 100%
- inhibition [7]: 90%
- pIC50 [8]: 8.78
- pIC50 [9]: 8.86
- half-life [10]: 168 min
- Vd [11]: 7.1 L/kg
- inhibition [12]: 55%
- inhibition in vivo at 80 mg/kg (Mus musculus): 95.9%
- pIC50 [13]: 10.70
- inhibition [14]: 63%
- pIC50 [15]: 9.74
- inhibition [16]: 99%
- inhibition [17]: 75%
- inhibition [18]: 83%
- GI50 (A549): 14.6 µM
- inhibition [19]: Active
- pIC50 [20]: 8.07
- inhibition [21]: 22%
- inhibition [22]: 10%
- pIC50 [23]: 9.92
